Source: patent publication US20260364184A1, “COMPOUND BASED ON OXOISOINDOLINYL-SUBSTITUTED TETRAHYDROPYRIMIDINE-DIONE AND USE THEREOF” (GLUETACS THERAPEUTICS (SHANGHAI) CO., LTD., priority 2023, published 2026)
Each block holds one molecule with its values, some of them ahead of it.

Key:
ER = ER (Homo sapiens, UniProt P03372); assay: Western blot degradation of ER; assay type: cell-based; settings: Table IIA3, ER inhibitor-based
Method: (§1) Conventional Western blot assay was performed to evaluate the effects of the compounds of the present disclosure on the expression of target proteins in cells.
(§2) (1) Cell Seeding and Protein Harvesting: The selected cells were processed according to the cell seeding procedure and protein harvesting procedure in Table II-2.
(§3) (2) To the collected supernatant, 5×SDS sample loading buffer was added, followed by denaturation at 95 °C for 5 minutes. The denatured samples were then separated by SDS-PAGE electrophoresis on a polyacrylamide gel. Proteins were transferred to a nitrocellulose membrane (0.45 μm NC membrane), blocked with blocking buffer at room temperature for 1 hour, and subjected to antibody incubation and development procedures according to the antibody manufacturer's instructions (Cell Signaling Technology).
(§4) Half-Maximal Degradation Concentration value (the drug concentration required for degrading proteins by 50%, abbreviated as DC50) reads method: comparing the grayscale values of Western blot bands from drug-treated samples with those from blank DMSO-treated controls, and identifying the drug concentration range at which the grayscale value is half that of the DMSO-treated control bands.
(§5) DC50 values can be calculated using ImageJ software to measure grayscale values of Western blot bands from drug-treated samples. […]

CDK2 = CDK2 (Homo sapiens, UniProt P24941); assay: Western blot degradation of CDK2; assay type: cell-based; settings: hPBMC Cell; 24 hours
Method: as §1, §2, §3, §4, §5

JEKO-1 = assay: Inhibition of JEKO-1 cell proliferation (CellTiter luminescent viability); assay type: cell-based, human; settings: Table IC1, BTK inhibitor-based; JEKO-1, 96 hours; read-out: Inhibitory activity (IC50, nM) on tumor cell proliferation, JEKO-1
Method: (§6) The tumor cells used herein were cultured in a cell culture medium listed in table 3 at 37 °C in an incubator with 5% CO2. Prior to experimentation, all cell lines used were correctly identified by STR profiling, and tested negative for mycoplasma contamination using a mycoplasma detection kit through routine screenings.
(§7) The IC50 values of the compounds of the present disclosure (including the compounds in Table 1, Table 2, and Examples 1-468) were determined using the CellTiter-Meiluncell Luminescent Cell Viability Assay Kit from Dalian Meilun Biotech Co., Ltd. The detailed procedure is as follows: Tumor cells were seeded in 96-well cell culture plates at the densities specified in Table 4. On the following day, the test compounds of the present disclosure were subjected to serial dilution. The dilution can be performed according to one of the following two methods: • (1) The first dilution method: The test compounds of the present disclosure (including the compounds in Table 1, Table 2, and Examples 1-468) were subjected to 5-fold serial dilutions starting from a highest concentration of 2000 μM, resulting in a total of 9 concentrations from high to low (2000, 400, 80, 16, 3.2, 0.64, 0.128, 0.0256, 0.00512 μM). Subsequently, 0.5 μL of the test compound dilution was transferred into the 96-well plate containing the cells, with each well containing 100 μL of cell culture medium. […] Into the 96-well plate, the diluted test compounds and corresponding detection reagents were added, resulting in final test compound concentrations of 500 nM and 10 nM, respectively. The experimental procedure is described below using the diluted 2 μM test compound as an example.
(§8) 0.5 μL of the aforementioned diluted compound of the present disclosure (including the compounds in Table 1, Table 2, and Examples 1-468) was added to the seeded cells in 100 μL of medium, yielding a final test compound concentration of 10 nM. After the cells were treated with the compounds of the present disclosure for a specified period, the cell viability assay reagent was added to the culture medium according to the kit's instructions to determine cell viability. […] All controls were treated using the same procedure as the compounds of the present disclosure. The growth inhibition curves for the compounds of the present disclosure were plotted using Prism GraphPad software, and the IC50 values were calculated therefrom.

[1] = tested on: Human T lymphocytic leukemia cell line (Jurkat); assay: Inhibition of Jurkat cell proliferation (CellTiter luminescent viability); assay type: cell-based; settings: Table IC1, BTK inhibitor-based, 96 hours, read-out: Inhibitory activity (IC50, nM) on tumor cell proliferation, Jurkat
BTK = molecular target: T1, BTK (Homo sapiens, UniProt Q06187); assay: Western blot degradation of BTK; assay type: cell-based; settings: Table IIA4, BTK inhibitor-based
T1 construct: expression of target proteins in cells; endogenous in cells
T1 sequence (Q06187 whole entry): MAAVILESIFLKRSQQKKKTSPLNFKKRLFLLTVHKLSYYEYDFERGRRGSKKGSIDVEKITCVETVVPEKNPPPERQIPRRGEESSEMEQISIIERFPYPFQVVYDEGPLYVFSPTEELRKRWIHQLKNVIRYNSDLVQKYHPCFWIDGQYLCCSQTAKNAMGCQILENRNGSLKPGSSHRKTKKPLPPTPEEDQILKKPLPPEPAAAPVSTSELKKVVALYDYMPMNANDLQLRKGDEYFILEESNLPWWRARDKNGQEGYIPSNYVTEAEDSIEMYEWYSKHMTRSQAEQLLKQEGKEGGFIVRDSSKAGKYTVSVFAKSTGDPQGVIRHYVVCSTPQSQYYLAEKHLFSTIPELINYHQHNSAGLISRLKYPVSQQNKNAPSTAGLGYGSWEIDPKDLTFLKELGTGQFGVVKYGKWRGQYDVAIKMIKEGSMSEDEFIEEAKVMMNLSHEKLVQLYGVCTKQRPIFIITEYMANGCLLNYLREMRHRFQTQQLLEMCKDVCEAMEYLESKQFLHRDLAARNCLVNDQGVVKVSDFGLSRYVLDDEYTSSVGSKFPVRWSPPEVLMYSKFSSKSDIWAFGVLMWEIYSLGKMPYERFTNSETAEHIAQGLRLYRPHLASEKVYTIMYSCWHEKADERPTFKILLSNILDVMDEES
Method: as §1, §2, §3, §4
DC50 values can be calculated using ImageJ software to measure grayscale values of Western blot bands from drug-treated samples. The concentration-response curve is fitted to estimate the drug concentration corresponding to half the grayscale value.
Target protein remaining (%) refers to the percentage of target protein remaining in cells after treatment with protein degrader compounds.
Calculation method for target protein remaining (%): Use ImageJ software to measure grayscale values of Western blot bands from drug (protein degrader)-treated samples. The grayscale value of drug-treated bands is divided by that of internal control protein bands, and the resulting quotient is normalized to obtain the relative percentage of remaining target protein after protein degrader treatment.
Target protein degradation rate (%)=1−target protein remaining (%).

[2] = tested on: Human gastric cancer cell line MGC803; assay: Inhibition of MGC803 tumor cell proliferation (CellTiter luminescent viability); assay type: cell-based; settings: Table IC1, BTK inhibitor-based; MGC803, 96 hours; read-out: Inhibitory activity (IC50, nM) on tumor cell proliferation, MGC803
Method: as §6, §7, §8

[3] = tested on: Human Multiple myeloma cell line (MM.1S); assay: Inhibition of MM.1S cell proliferation (CellTiter luminescent viability); assay type: cell-based; settings: Table IC1, BTK inhibitor-based, 96 hours, read-out: Inhibitory activity (IC50, nM) on tumor cell proliferation, MM.1S
In short: (§9)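 IC50 is fitted from luminescent viability (CellTiter-Meiluncell) curves. Nine-point, 5-fold dilution series (top stock 2000 μM) are added at 0.5 μL per 100 μL medium to cells plated the day before, with growth at 37 °C and 5% CO2.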

[4] = tested on: Human non-small cell lung cancer cell line NCI-H1975; assay: Inhibition of H1975 cell proliferation (CellTiter luminescent viability); assay type: cell-based; settings: Table IC1, BTK inhibitor-based; H1975, 96 hours; read-out: Inhibitory activity (IC50, nM) on tumor cell proliferation, H1975
In short: as §9

Sequence of ER (P03372 whole entry): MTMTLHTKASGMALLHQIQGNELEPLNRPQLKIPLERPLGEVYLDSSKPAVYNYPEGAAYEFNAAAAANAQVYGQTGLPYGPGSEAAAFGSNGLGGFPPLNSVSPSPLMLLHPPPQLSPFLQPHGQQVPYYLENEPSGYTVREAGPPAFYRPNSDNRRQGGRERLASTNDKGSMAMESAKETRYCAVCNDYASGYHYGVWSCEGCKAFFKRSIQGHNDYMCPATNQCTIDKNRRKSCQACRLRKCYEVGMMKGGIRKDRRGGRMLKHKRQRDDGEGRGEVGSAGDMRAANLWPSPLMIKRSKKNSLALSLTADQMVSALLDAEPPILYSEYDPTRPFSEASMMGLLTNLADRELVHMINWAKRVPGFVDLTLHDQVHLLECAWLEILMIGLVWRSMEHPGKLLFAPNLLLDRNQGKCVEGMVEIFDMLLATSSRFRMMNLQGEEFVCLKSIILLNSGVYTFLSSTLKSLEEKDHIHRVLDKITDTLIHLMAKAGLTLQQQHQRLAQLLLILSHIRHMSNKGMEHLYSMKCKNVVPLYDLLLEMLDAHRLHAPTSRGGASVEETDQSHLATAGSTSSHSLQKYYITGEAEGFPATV
Sequence of ER (Q96SW2 whole entry partner): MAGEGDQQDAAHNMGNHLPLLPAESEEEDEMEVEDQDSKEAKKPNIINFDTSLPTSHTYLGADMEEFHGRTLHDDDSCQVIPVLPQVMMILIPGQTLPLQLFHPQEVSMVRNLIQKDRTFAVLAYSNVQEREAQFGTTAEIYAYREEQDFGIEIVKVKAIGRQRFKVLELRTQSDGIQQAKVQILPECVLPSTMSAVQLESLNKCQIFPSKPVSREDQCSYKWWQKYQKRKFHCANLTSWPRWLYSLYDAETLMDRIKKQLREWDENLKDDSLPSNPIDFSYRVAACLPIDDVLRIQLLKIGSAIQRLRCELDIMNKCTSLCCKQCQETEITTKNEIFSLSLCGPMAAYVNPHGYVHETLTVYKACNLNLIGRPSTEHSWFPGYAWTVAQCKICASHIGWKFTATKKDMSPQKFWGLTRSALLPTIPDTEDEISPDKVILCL

Degradation of substrate protein ER (substrate protein remaining %) (ER): A (0%≤substrate protein remaining %≤80%)
Compound: O=C1CCN(N2C(=O)c3ccc(CN4CCN(c5ccc([C@@H]6c7ccc(O)cc7OC[C@@H]6c6ccccc6)cc5)CC4)cc3C2=O)C(=O)N1 [GT-04778, 2-(2,4-dioxotetrahydropyrimidin-1(2H)-yl)-5-((4-(4-((3S,4R)-7-hydroxy-3-phenylchroman-4-yl)phenyl)piperazin-1-yl)methyl)isoindoline-1,3-dione]

Degradation of substrate protein CDK2 (substrate protein remaining %) (CDK2): A (0%≤substrate protein remaining %≤80%)
Compound: Cc1cc(S(=O)(=O)N2CCN(Cc3ccc4c(c3)C(=O)N(N3CCC(=O)NC3=O)C4=O)CC2)ccc1Nc1ncc(Br)c(Nc2cccc(F)c2C(N)=O)n1 [GT-06829, 2-((5-bromo-2-((4-((4-((2-(2,4-dioxotetrahydropyrimidin-1(2H)-yl)-1,3-dioxoisoindolin-5-yl)methyl)piperazin-1-yl)sulfonyl)-2-methylphenyl)amino)pyrimidin-4-yl)amino)-6-fluorobenzamide]

IC50 [1]: 50 to 100 nM
Degradation of substrate protein BTK (substrate protein remaining %) (BTK): A (0%≤substrate protein remaining %≤80%)
IC50 [2]: 50 to 100 nM
IC50 [3]: 10 to 50 nM
IC50 [4]: 50 to 100 nM
Compound: Nc1ncnc2c1c(-c1ccc(Oc3ccccc3)cc1)nn2C1CCN(Cc2ccc3c(c2)CN(N2CCC(=O)NC2=O)C3=O)CC1 [GT-05075, 1-(5-((4-(4-amino-3-(4-phenoxyphenyl)-1H-pyrazolo[3,4-d]pyrimidin-1-yl)piperidin-1-yl)methyl)-1-oxoisoindolin-2-yl)dihydropyrimidine-2,4 (1H,3H)-dione]
IC50 (JEKO-1): 50 to 100 nM
